Results taken from ChEMBL document CHEMBL4406914, “Impact of Minor Structural Modifications on Properties of a Series of mTOR Inhibitors” (ACS Med Chem Lett, 2019).
Converted amounts (≈) assume the structure as drawn.

Columns and labels:
[1] = molecular target: Phosphatidylinositol 4,5-bisphosphate 3-kinase catalytic subunit alpha isoform (Homo sapiens, UniProt P42336)
Description: Inhibition of PI3Kalpha (unknown origin) using PIP2 as substrate measured after 30 mins by TR-FRET assay

[2] = Metabolic stability in human liver microsomes assessed as parent compound remaining at 1 uM measured at 15 mins in presence of phase 1 metabolism cofactors by LC-MS/MS analysis; format: ADME, Microsome; conditions: read-out: Stability
[3] = Lipophilicity, ChromlogD of compound at 0.5 mM at pH 6.5 by UPLC-UV analysis; conditions: buffer, pH 6.5, 500 µM
[4] = Hepatic intrinsic clearance in human Hepatocytes assessed per at 1 uM measured upto 90 mins by LC-MS/MS analysis; format: ADME, cell-based, Hepatocyte; conditions: 1.5 h
[5] = Kinetic aqueous solubility of compound in phosphate buffer at pH 7.4 at 100 uM at 20 degree C shaken for 24 hrs by HPLC analysis; format: physicochemical; conditions: read-out: Kinetic_solubility
mTORC2 = mTORC2 (Homo sapiens, UniProt P42345); experiment: Inhibition of mTORC2 in human A431 cells assessed as AKT phosphorylation at S473 residue incubated for 3 hrs by HTRF assay; format: cell-based
mTORC1 = mTORC1 (Homo sapiens, UniProt P42345); experiment: Inhibition of mTORC1 in human A431 cells assessed as S6RP phosphorylation incubated for 3 hrs by HTRF assay; format: cell-based
[6] = molecular target: Serine/threonine-protein kinase mTOR (Homo sapiens, UniProt P42345); experiment: Inhibition of human recombinant GST-tagged mTOR catalytic domain (1360 to 2549 residues) expressed in baculovirus expression system using GFP-4E-BP1 peptide as substrate incubated for 1 hr by LanthaScreen assay

Sequence of Phosphatidylinositol 4,5-bisphosphate 3-kinase catalytic subunit alpha isoform (P42336 whole entry, canonical isoform): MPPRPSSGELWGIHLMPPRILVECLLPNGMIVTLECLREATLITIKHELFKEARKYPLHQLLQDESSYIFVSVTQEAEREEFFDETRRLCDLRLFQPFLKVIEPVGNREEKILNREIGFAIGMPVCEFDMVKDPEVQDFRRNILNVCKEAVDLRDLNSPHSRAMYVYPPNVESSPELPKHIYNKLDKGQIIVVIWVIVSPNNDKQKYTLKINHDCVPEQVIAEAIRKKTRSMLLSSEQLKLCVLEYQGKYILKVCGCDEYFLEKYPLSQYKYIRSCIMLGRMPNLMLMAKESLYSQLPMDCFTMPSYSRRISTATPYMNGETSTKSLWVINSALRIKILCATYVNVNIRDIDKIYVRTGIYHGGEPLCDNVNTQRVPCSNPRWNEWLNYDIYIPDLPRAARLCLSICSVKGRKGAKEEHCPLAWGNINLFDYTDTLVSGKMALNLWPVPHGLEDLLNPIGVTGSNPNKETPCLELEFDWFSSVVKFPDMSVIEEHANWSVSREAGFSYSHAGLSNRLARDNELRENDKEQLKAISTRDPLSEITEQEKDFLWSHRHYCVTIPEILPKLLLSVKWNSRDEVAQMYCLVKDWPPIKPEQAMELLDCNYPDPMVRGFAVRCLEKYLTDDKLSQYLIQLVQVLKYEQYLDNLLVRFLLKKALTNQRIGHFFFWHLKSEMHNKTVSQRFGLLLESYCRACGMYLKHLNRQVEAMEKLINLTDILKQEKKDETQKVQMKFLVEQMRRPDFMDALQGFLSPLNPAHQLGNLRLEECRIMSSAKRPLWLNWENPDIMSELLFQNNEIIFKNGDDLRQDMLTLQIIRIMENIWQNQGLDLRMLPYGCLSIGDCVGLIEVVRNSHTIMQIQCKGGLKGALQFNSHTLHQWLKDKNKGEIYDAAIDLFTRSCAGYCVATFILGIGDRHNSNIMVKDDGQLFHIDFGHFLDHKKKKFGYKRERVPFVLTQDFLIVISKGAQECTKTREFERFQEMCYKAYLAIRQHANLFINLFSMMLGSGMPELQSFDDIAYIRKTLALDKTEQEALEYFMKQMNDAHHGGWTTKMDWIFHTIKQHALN

Structure (SMILES) | Ki [1] | remaining at 0.25 h, 1 µM [2] | ChromlogD6.5 [3] | CLH [4] | solubility kinetic at 24 h, 100 µM [5] | IC50 (mTORC2) | IC50 (mTORC1) | Ki [6]
CNc1nc2c(c(-c3ccc4oc(N)nc4c3)nn2C(C)C)c(=O)[nH]1 | > 10 µM | > 95% | 1.5 | < 5 µL/min | < 1 µM | 0.36 µM | 0.24 µM | 0.19 µM
CC(C)n1nc(-c2ccc3oc(N)nc3c2)c2c(F)nc(N)nc21 | 2.6 µM | 83% | 1.8 | 57 µL/min | < 1 µM | 0.08 µM | 0.04 µM | 0.013 µM
COc1nc(N)nc2c1c(-c1ccc3oc(N)nc3c1)nn2C(C)C | 0.25 µM | > 95% | 1.6 |  | < 1 µM | 0.68 µM | 0.42 µM | 0.37 µM
CCCCn1nc(-c2ccc3oc(N)nc3c2)c2c(Cl)nc(N)nc21 | 4.6 µM |  | 2.3 |  | < 1 µM | 0.02 µM | 0.007 µM | 0.011 µM
CC(C)n1nc(-c2ccc3oc(N)nc3c2)c2c(Cl)nc(N)nc21 | 0.92 µM | 92% | 1.7 | 11 µL/min | 2 µM (≈ 0.688 µg/mL) | 0.02 µM | 0.008 µM | 
CCCCn1nc(-c2ccc3oc(N)nc3c2)c2c(C)nc(N)nc21 | 2.2 µM |  | 1.4 |  | 5.2 µM (≈ 1.75 µg/mL) | 0.09 µM | 0.03 µM | 0.033 µM
CC(C)n1nc(-c2ccc3oc(N)nc3c2)c2c(C#N)nc(N)nc21 | > 10 µM | > 95% | 1.8 | < 5 µL/min | < 1 µM |  |  | 2.2 µM
CC(C)n1nc(-c2ccc3oc(N)nc3c2)c2c(C(F)(F)F)nc(N)nc21 | > 10 µM | > 95% | 2.4 | < 5 µL/min | < 1 µM |  |  | 2.3 µM
CC(C)n1nc(-c2ccc3oc(N)nc3c2)c2c(N)ncnc21 [SAPANISERTIB] |  | > 95% | 0.4 | < 5 µL/min | 82 µM (≈ 25.4 µg/mL) |  |  | 
CC(C)n1nc(-c2ccc3oc(N)nc3c2)c2c(=O)[nH]c(N)nc21 | 3.2 µM | > 95% | 0.4 | < 5 µL/min | 9.2 µM (≈ 2.99 µg/mL) | 0.2 µM | 0.04 µM | 0.02 µM
CC(C)n1nc(-c2ccc3oc(N)nc3c2)c2c(CO)nc(N)nc21 | > 10 µM | > 95% | 0.2 | < 5 µL/min | 82 µM (≈ 27.8 µg/mL) |  |  | 4 µM
CC(C)n1nc(-c2ccc3oc(N)nc3c2)c2c(=O)[nH]c(N(C)C)nc21 | > 10 µM | 90% | 2.1 | < 5 µL/min | 2 µM (≈ 0.707 µg/mL) |  |  | 1.7 µM
CC(C)n1nc(-c2ccc3oc(N)nc3c2)c2c(Br)nc(N)nc21 | 1 µM | 94% | 1.8 | 55 µL/min | 4 µM (≈ 1.55 µg/mL) | 0.06 µM | 0.035 µM | 0.021 µM
CCc1nc(N)nc2c1c(-c1ccc3oc(N)nc3c1)nn2C(C)C | 0.085 µM | 93% | 1.2 | < 5 µL/min | 62 µM (≈ 20.9 µg/mL) | 0.14 µM | 0.06 µM | 0.05 µM
CC(C)n1nc(-c2ccc3oc(N)nc3c2)c2cnc(N)nc21 | 0.78 µM | 94% | 1.1 | 150 µL/min | 1.6 µM (≈ 0.495 µg/mL) | 0.015 µM | 0.007 µM | 0.006 µM
Cc1nc2c(c(-c3ccc4oc(N)nc4c3)nn2C(C)C)c(=O)[nH]1 | > 10 µM | > 95% | 1.2 | < 5 µL/min | 3 µM (≈ 0.973 µg/mL) | 0.09 µM | 0.045 µM | 0.04 µM
CC(C)n1nc(-c2ccc3oc(N)nc3c2)c2c(N)nc(N)nc21 | 0.15 µM | > 95% | -0.1 | < 5 µL/min | 88 µM (≈ 28.5 µg/mL) | 0.011 µM | 0.004 µM | 0.004 µM
Cc1nc(N)nc2c1c(-c1ccc3oc(N)nc3c1)nn2C(C)C | 0.99 µM | > 95% | 0.8 | < 5 µL/min | 74 µM (≈ 23.9 µg/mL) | 0.2 µM | 0.04 µM | 0.062 µM
